Source: patent US8946201B2, “Methods for inhibiting TGF-β” (Saint Louis University, priority 2007, dated 2015)

System: Mv1Lu cells
Assay: [Methyl-3H]thymidine incorporation (DNA synthesis), Mv1Lu cells
Format: cell-based, mink
Protocol: (A, B, C, D, E, F) Cells were treated with 50 μg/ml cholesterol (A, B, C, D) and 50 μg/ml LDL (D) at 37° C. for 1 hr or with 1 μM fluvastatin or lovastatin (E) or several concentrations of fluvastatin (F) at 37° C. for 16 hr and then further incubated with increasing concentrations (as indicated) of TGF-β1 (A, B, C, E) or 50 pM TGF-β1 (D,F) for 2 hr. Northern blot analysis of PAI-1 and G3PDH was performed. A representative of a total of three analyses is shown (a). The relative intensities of the transcripts were quantified with a PhosphoImager. The ratio of the relative intensities of PAI-1 and G3PDH transcripts in cells treated without TGF-β1 and cholesterol, LDL or statins on the blot was taken as 1 fold or 100% of PAI-1 expression. The quantitative data from three independent analyses is shown (b). […] (G) Mv1Lu cells stably expressing a luciferase reporter gene driven by the PAI-1 promoter (MLECs-clone 32) were treated with increasing concentrations (as indicated) of cholesterol at 37 EC for 1 hr (a) or with 1 μM lovastatin at 37° C. for 16 hr (b) and then further incubated with 50 pM TGF-β for 7 hr. The luciferase activity in cells treated without cholesterol was taken as 100% (a). […] (H) Cells were incubated with 0.0625 and 0.125 pM TGF-β1 in the presence of increasing concentrations of cholesterol, as indicated. After 18 hr at 37° C., cell growth was determined by measurement of [^3H-methyl]thymidine incorporation into cellular DNA (a). The [^3H-methyl]thymidine incorporation in cells treated with vehicle only (T1); with TGF-β1 (T2); with cholesterol (T3); with cholesterol and TGF-β1 (T4) was measured. T1 was taken as 100%. The degree (%) of cholesterol-mediated reversal of TGF-β1 growth inhibition was estimated by the equation: % reversal=[1−(T3−T4/T1−T2)]×100 Cholesterol appeared to reverse TGF-β1 growth inhibition in a dose-dependent manner (b). The experiments were carried out in triplicate.
The growth of cholesterol-treated cells was determined by measurement of [methyl-^3H]thymidine incorporation into cellular DNA as described (30). Briefly, cells grown near confluence on 48-well clustered dishes were treated with several concentrations of cholesterol at 37° C. for 1 hr in serum-free DMEM. The final concentration of ethanol (the vehicle for cholesterol) in the medium was 0.2%. […] The [methyl-^3H]thymidine incorporation into cellular DNA was then determined by incubation of cells with [methyl-^3H]thymidine at 37° C. for 2 hr in DMEM containing 0.1% fetal calf serum. […]
Another prominent biological activity of TGF-β is growth inhibition of many different cell types. […] DNA synthesis was then determined by measurement of [^3H-methyl]thymidine incorporation into cellular DNA (FIG. 2Ha). […]

For `CC(C)CCC[C@@H](C)[C@H]1CC[C@H]2[C@@H]3CC=C4C[C@@H](O)CC[C@]4(C)[C@H]3CC[C@]12C` [cholesterol], the “reversal of DNA synthesis inhibition induced by TGF-β1” value (8 μg/ml, 0.0625 and 0.125 pM TGF-β1, 18 hr) was “almost completely reversed” and the “effect on DNA synthesis, alone” value (6 and 8 μg/ml, without TGF-β1) was “inhibited”.
